# Measurements from patent US8784898B2, “Methods of wound care and treatment” (Revalesio Corporation, priority 2006, dated 2014).
# Tested on: Methicillin-Resistant Staphylococcus Aureus (MRSA)
# Experiment: MRSA bacteriocidal effects in combination with oxacillin
# Format: cell-based
# Parameters: concentration or dose not given beside the values
structure (smiles),measurement,setting,value
"Cc1onc(-c2ccccc2)c1C(=O)N[C@@H]1C(=O)N2[C@@H]1SC(C)(C)[C@@H]2C(=O)O [Drug, oxacillin]",Percentage of plates with no growth,0 min,16.67%
same,Percentage of plates with no growth,30 min,0.00%
same,Percentage of plates with no growth,120 min,0.00%
same,Percentage of plates with no growth,240 min,0.00%
same,Percentage of plates with no growth,480 min,0.00%
same,Percentage of plates with no growth,1080 min,0.00%
same,Percentage of plates with no growth,1440 min,0.00%
